System: moderate-to-severe chronic spontaneous urticaria (CSU)
Experiment: Phase 2 CSU study: hives severity score over 7 days (HSS7)
Format: in vivo, human
Set-up: key to HSS7 Change from baseline, Median / HSS7, Median / HSS7, Max / HSS7 Change from baseline, Q1 / HSS7 Change from baseline, Q3 / HSS7 Change from baseline, Max: 7-day sum of daily hive scores, each 0 = none to 3 = >50 hives
From the text: The study comprises a 12 week, randomized, double-blind, placebo-controlled, multi-center, dose-ranging efficacy and safety phase, followed by a 40 week open label extension (OLE) phase (see FIG. 1).
The study consists of three phases and an optional OLE phase.
The UAS is a validated PRO measure. The daily UAS is the sum of the daily Hive Severity Score (HSS, ranging from 0=None to 3=more than 50 hives) and the daily Itch Severity Score (ISS, ranging from 0=None to 3=intense), the 2 key urticaria signs and symptoms which are wheals and itch. The daily UAS scores range from 0 to 6 point/day. Daily UAS scores are summed over 7-day period to create the UAS7, ranging from 0 to 42, and are composed of the HSS7 and ISS7 components. […] Patients were to complete the UAS using the e-diary. The e-diary was to be used once daily on the same time of each day recording of participant's answers to the urticaria activity score over 7 days (UAS7) questionnaire. For participants who entered the OLE phase, their answers to the UAS7 questionnaire were also to be collected from Week 20 to Week24 and from Week 48 to Week 52.
The following secondary endpoints were to be analyzed using the same approach as for the primary endpoint: • Change from baseline in UAS7 at Week 4 • Change from baseline in UAS7 at Week 12 (for US and US reference countries) • Change from baseline in ISS7 at Week 12 (except US and US reference countries) • Change from baseline in HSS7 at Week 12

[1] = 400 mg BID, Week 11, ITT Population
[2] = 400 mg BID, Week 12, ITT population
[3] = 400 mg BID, Week 12, Omalizumab-Naïve Population
[4] = 400 mg QPM, Omalizumab-Naïve Population, last block under Week 12, double-blind period, WOCF imputation
[5] = 400 mg QPM, Week 1, ITT Population
[6] = 400 mg QPM, Week 1, Omalizumab-Naïve Population
[7] = 400 mg QPM, Week 2, ITT Population
[8] = 400 mg QPM, Week 2, Omalizumab-Naïve Population
[9] = 400 mg QPM, Week 3, ITT Population
[10] = 400 mg QPM, Week 3, Omalizumab-Naïve Population
[11] = 400 mg QPM, Week 4, ITT population
[12] = 400 mg QPM, Week 4, Omalizumab-Naïve Population
[13] = 400 mg QPM, Week 5, ITT Population
[14] = 400 mg QPM, Week 5, Omalizumab-Naïve Population
[15] = 400 mg QPM, Week 6, ITT Population
[16] = 400 mg QPM, Week 6, Omalizumab-Naïve Population
[17] = 400 mg QPM, Week 7, ITT Population
[18] = 400 mg QPM, Week 7, Omalizumab-Naïve Population
[19] = 400 mg QPM, Week 8, ITT population
[20] = 400 mg QPM, Week 8, Omalizumab-Naïve Population
[21] = 400 mg QPM, Week 9, ITT Population

## CC(C)(C=C(C#N)C(=O)N1CCC[C@@H](n2nc(-c3ccc(Oc4ccccc4)cc3F)c3c(N)ncnc32)C1)N1CCN(C2COC2)CC1 [rilzabrutinib, (R)-2-[3-[4-amino-3-(2-fluoro-4-phenoxy-phenyl)pyrazolo[3,4-d]pyrimidin-1-yl]piperidine-1-carbonyl]-4-methyl-4-[4-(oxetan-3-yl)piperazin-1-yl]pent-2-enenitrile]
[1]
  HSS7 % Change from baseline LS Mean (SE): −49.14 (7.06) %
  HSS7 Change difference for rilzabrutinib vs.placebo LS Mean (95% CI): −2.46 (−5.05, 0.13)
  HSS7 Change from baseline LS Mean (SE): −7.01 (0.99)
  HSS7 Postbaseline Mean (SD): 6.79 (7.06)
400 mg BID, Week 11, Omalizumab-Naïve Population
  HSS7 Postbaseline Mean (SD): 7.13 (7.07)
400 mg BID, Week 11, Omalizumab-Naïve Population with Outlier Removed from Analysis
  HSS7 Postbaseline Mean (SD): 7.13 (7.07)
[2]
  HSS7 % Change difference for rilzabrutinib vs.placebo LS Mean (95% CI): −19.13 %
  HSS7 % Change from baseline LS Mean (SE): −46.86 (7.34) %
  HSS7 Change difference for rilzabrutinib vs.placebo LS Mean (95% CI): −1.89 (−4.58, 0.80)
  HSS7 Change from baseline LS Mean (SE): −6.78 (1.02)
  HSS7 Postbaseline Mean (SD): 7.08 (7.32)
[3]
  HSS7 Change difference for rilzabrutinib vs.placebo LS Mean (95% CI): −2.12 (−4.97, 0.73)
  HSS7 Change from baseline LS Mean (SE): −6.52 (1.07)
  HSS7 Postbaseline Mean (SD): 7.52 (7.21)
400 mg BID, Week 12, Omalizumab-Naïve Population with Outlier Removed from Analysis
  HSS7 Postbaseline Mean (SD): 7.52 (7.21)
[4]
  HSS7, Max: 21.0
  HSS7, Min: 0.0
  HSS7 Change from baseline, Max: 1.5
  HSS7 Change from baseline, Mean (SD): −9.87 (8.34)
  HSS7 Change from baseline, Median: −12.00
  HSS7 Change from baseline, Min: −19.6
  HSS7 Change from baseline, Q1: −18.00
  HSS7 Change from baseline, Q3: 0.00
  HSS7 Percent change from baseline, Max: 9.4%
  HSS7 Percent change from baseline, Mean (SD): −64.85 (48.75) percent
  HSS7 Percent change from baseline, Median: −93.33%
  HSS7 Percent change from baseline, Q1: −100.00%
  HSS7 Percent change from baseline, Q3: 0.00%
[5]
  HSS7 % Change difference for rilzabrutinib vs.placebo LS Mean (95% CI): −16.53 %
  HSS7 % Change from baseline LS Mean (SE): −25.22 (5.61) %
  HSS7 Change difference for rilzabrutinib vs.placebo LS Mean (95% CI): −2.14 (−4.59, 0.31)
  HSS7 Change from baseline LS Mean (SE): −3.98 (0.76)
  HSS7 Postbaseline Mean (SD): 10.76 (4.83)
[6]
  HSS7 % Change difference for rilzabrutinib vs.placebo LS Mean (95% CI): −17.05 %
  HSS7 % Change from baseline LS Mean (SE): −24.49 (5.76) %
  HSS7 Change difference for rilzabrutinib vs.placebo LS Mean (95% CI): −2.16 (−4.69, 0.37)
  HSS7 Change from baseline LS Mean (SE): −3.79 (0.77)
  HSS7 Postbaseline Mean (SD): 10.73 (4.90)
400 mg QPM, Week 1, Omalizumab-Naïve Population with Outlier Removed from Analysis
  HSS7 Postbaseline Mean (SD): 10.73 (4.90)
[7]
  HSS7 % Change difference for rilzabrutinib vs.placebo LS Mean (95% CI): −7.67 (−23.03, 7.68) %
  HSS7 % Change from baseline LS Mean (SE): −24.23 (5.75) %
  HSS7 Change difference for rilzabrutinib vs.placebo LS Mean (95% CI): −0.95 (−3.07, 1.17)
  HSS7 Change from baseline LS Mean (SE): −3.87 (0.80)
  HSS7 Postbaseline Mean (SD): 10.96 (4.91)
[8]
  HSS7 % Change difference for rilzabrutinib vs.placebo LS Mean (95% CI): −8.35 (−24.24, 7.54) %
  HSS7 % Change from baseline LS Mean (SE): −23.62 (5.84) %
  HSS7 Postbaseline Mean (SD): 10.90 (4.97)
400 mg QPM, Week 2, Omalizumab-Naïve Population with Outlier Removed from Analysis
  HSS7 Postbaseline Mean (SD): 10.90 (4.97)
[9]
  HSS7 % Change difference for rilzabrutinib vs.placebo LS Mean (95% CI): −9.55 (−25.43, 6.33) %
  HSS7 % Change from baseline LS Mean (SE): −28.70 (5.96) %
  HSS7 Change difference for rilzabrutinib vs.placebo LS Mean (95% CI): −0.94 (−3.15, 1.28)
  HSS7 Change from baseline LS Mean (SE): −4.44 (0.83)
  HSS7 Postbaseline Mean (SD): 10.40 (4.90)
[10]
  HSS7 % Change difference for rilzabrutinib vs.placebo LS Mean (95% CI): −10.40 %
  HSS7 % Change from baseline LS Mean (SE): −28.10 (6.12) %
  HSS7 Postbaseline Mean (SD): 10.41 (4.97)
400 mg QPM, Week 3, Omalizumab-Naïve Population with Outlier Removed from Analysis
  HSS7 Postbaseline Mean (SD): 10.41 (4.97)
[11]
  HSS7 % Change difference for rilzabrutinib vs.placebo LS Mean (95% CI): −7.88 (−24.05, 8.29) %
  HSS7 % Change from baseline LS Mean (SE): −26.58 (6.02) %
  HSS7 Change difference for rilzabrutinib vs.placebo LS Mean (95% CI): −0.78 (−3.03, 1.46)
  HSS7 Change from baseline LS Mean (SE): −4.23 (0.84)
[12]
  HSS7 % Change difference for rilzabrutinib vs.placebo LS Mean (95% CI): −10.20 %
  HSS7 % Change from baseline LS Mean (SE): −26.07 (6.19) %
[13]
  HSS7 % Change difference for rilzabrutinib vs.placebo LS Mean (95% CI): −2.80 %
  HSS7 % Change from baseline LS Mean (SE): −31.95 (5.91) %
  HSS7 Change difference for rilzabrutinib vs.placebo LS Mean (95% CI): −0.33 (−2.64, 1.97)
  HSS7 Change from baseline LS Mean (SE): −4.97 (0.86)
  HSS7 Postbaseline Mean (SD): 9.59 (5.07)
[14]
  HSS7 % Change difference for rilzabrutinib vs.placebo LS Mean (95% CI): −0.56 %
  HSS7 % Change from baseline LS Mean (SE): −31.12 (6.01) %
  HSS7 Postbaseline Mean (SD): 9.63 (5.13)
400 mg QPM, Week 5, Omalizumab-Naïve Population with Outlier Removed from Analysis
  HSS7 Postbaseline Mean (SD): 9.63 (5.13)
[15]
  HSS7 % Change difference for rilzabrutinib vs.placebo LS Mean (95% CI): −7.12 %
  HSS7 % Change from baseline LS Mean (SE): −31.19 (6.73) %
  HSS7 Change difference for rilzabrutinib vs.placebo LS Mean (95% CI): −0.50 (−3.00, 2.00)
  HSS7 Change from baseline LS Mean (SE): −4.76 (0.93)
  HSS7 Postbaseline Mean (SD): 9.89 (5.69)
[16]
  HSS7 % Change difference for rilzabrutinib vs.placebo LS Mean (95% CI): −6.27 %
  HSS7 % Change from baseline LS Mean (SE): −30.30 (6.90) %
  HSS7 Postbaseline Mean (SD): 9.94 (5.76)
400 mg QPM, Week 6, Omalizumab-Naïve Population with Outlier Removed from Analysis
  HSS7 Postbaseline Mean (SD): 9.94 (5.76)
[17]
  HSS7 % Change difference for rilzabrutinib vs.placebo LS Mean (95% CI): −5.92 %
  HSS7 % Change from baseline LS Mean (SE): −29.88 (6.15) %
  HSS7 Change difference for rilzabrutinib vs.placebo LS Mean (95% CI): −0.53 (−2.87, 1.81)
  HSS7 Change from baseline LS Mean (SE): −4.61 (0.88)
  HSS7 Postbaseline Mean (SD): 10.38 (5.19)
[18]
  HSS7 % Change difference for rilzabrutinib vs.placebo LS Mean (95% CI): −3.82 %
  HSS7 % Change from baseline LS Mean (SE): −29.51 (6.35) %
  HSS7 Postbaseline Mean (SD): 10.43 (5.27)
400 mg QPM, Week 7, Omalizumab-Naïve Population with Outlier Removed from Analysis
  HSS7 Postbaseline Mean (SD): 10.43 (5.27)
[19]
  HSS7 % Change difference for rilzabrutinib vs.placebo LS Mean (95% CI): −1.88 %
  HSS7 % Change from baseline LS Mean (SE): −30.95 (6.43) %
  HSS7 Change difference for rilzabrutinib vs.placebo LS Mean (95% CI): 0.11 (−2.37, 2.59)
  HSS7 Change from baseline LS Mean (SE): −4.64 (0.93)
  HSS7 Postbaseline Mean (SD): 10.43 (5.63)
[20]
  HSS7 % Change difference for rilzabrutinib vs.placebo LS Mean (95% CI): −2.41 %
  HSS7 % Change from baseline LS Mean (SE): −30.42 (6.75) %
[21]
  HSS7 % Change difference for rilzabrutinib vs.placebo LS Mean (95% CI): −10.31 %
  HSS7 % Change from baseline LS Mean (SE): −34.23 (6.69) %
  HSS7 Change difference for rilzabrutinib vs.placebo LS Mean (95% CI): −0.94 (−3.47, 1.59)
  HSS7 Change from baseline LS Mean (SE): −5.06 (0.95)
  HSS7 Postbaseline Mean (SD): 9.77 (5.51)
400 mg QPM, Week 9, Omalizumab-Naïve Population
  HSS7 Postbaseline Mean (SD): 9.82 (5.59)
400 mg QPM, Week 9, Omalizumab-Naïve Population with Outlier Removed from Analysis
  HSS7 Postbaseline Mean (SD): 9.82 (5.59)

— patent publication US20260256792A1, “TREATMENT OF CHRONIC SPONTANEOUS URTICARIA BY ADMINISTERING (R)-2-[3-[4-AMINO-3-(2-FLUORO-4-PHENOXY-PHENYL)PYRAZOLO[3,4-D]PYRIMIDIN-1-YL]PIPERIDINE-1-CARBONYL]-4-METHYL-4-[4-(OXETAN-3-YL)PIPERAZIN-1-YL]PENT-2-ENENITRILE” (priority 2023, published 2026)
